ChEMBL document CHEMBL6182949 (J Med Chem, 2025)
Calls of active or inactive are those of the source. No cut-off for these calls is given here.

Experiments:
[1] = target: T1, Interleukin-1 receptor-associated kinase 4 (Homo sapiens, UniProt Q9NWZ3); test: Inhibition of IRAK4 (unknown origin)
T1 sequence (Q9NWZ3 whole entry): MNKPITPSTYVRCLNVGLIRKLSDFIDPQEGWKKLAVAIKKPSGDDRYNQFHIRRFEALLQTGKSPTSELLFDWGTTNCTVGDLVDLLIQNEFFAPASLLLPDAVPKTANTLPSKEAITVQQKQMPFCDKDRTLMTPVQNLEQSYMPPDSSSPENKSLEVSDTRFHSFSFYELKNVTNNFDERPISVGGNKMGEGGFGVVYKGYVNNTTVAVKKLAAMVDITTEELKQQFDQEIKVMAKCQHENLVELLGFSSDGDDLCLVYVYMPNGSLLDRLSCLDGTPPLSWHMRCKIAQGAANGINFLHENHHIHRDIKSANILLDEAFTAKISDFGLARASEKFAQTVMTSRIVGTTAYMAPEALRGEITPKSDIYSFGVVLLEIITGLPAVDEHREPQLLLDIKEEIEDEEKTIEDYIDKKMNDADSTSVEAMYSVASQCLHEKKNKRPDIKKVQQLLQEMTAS

Mus musculus [2] = test: Anti-psoriasis effect in IMQ-induced C57BL/6 mouse assessed as reduction in cumulative score at 30 mg/kg administered topically twice daily for 6 days and measured after 24 hrs; assay type: functional, organism-based; conditions: time 7.0 day
Mus musculus [3] = test: Anti-psoriasis effect in IMQ-induced C57BL/6 mouse assessed as reduction in delta ear thickness at 30 mg/kg administered topically twice daily for 6 days and measured after 24 hrs; assay type: functional, organism-based; conditions: time 7.0 day
Mus musculus [4] = test: Anti-psoriasis effect in IMQ-induced C57BL/6 mouse assessed as reduction in cumulative score at 100 mg/kg administered topically twice daily for 6 days and measured after 24 hrs; assay type: functional, organism-based; conditions: time 7.0 day
Mus musculus [5] = test: Anti-psoriasis effect in IMQ-induced C57BL/6 mouse assessed as reduction in delta ear thickness at 100 mg/kg administered topically twice daily for 6 days and measured after 24 hrs; assay type: functional, organism-based; conditions: time 7.0 day
[6] = target: T2, Protein cereblon/Interleukin-1 receptor-associated kinase 4 (Homo sapiens, UniProt Q9NWZ3+Q96SW2); test: PROTAC activity at CRBN/IRAK4 in human PBMC cells assessed as induction of IRAK4 degradation incubated for 24 hrs by HiBiT lytic reagent based analysis relative to control; assay type: cell-based
Target sequence in this assay (Q96SW2 whole entry, looked up, one chain of several): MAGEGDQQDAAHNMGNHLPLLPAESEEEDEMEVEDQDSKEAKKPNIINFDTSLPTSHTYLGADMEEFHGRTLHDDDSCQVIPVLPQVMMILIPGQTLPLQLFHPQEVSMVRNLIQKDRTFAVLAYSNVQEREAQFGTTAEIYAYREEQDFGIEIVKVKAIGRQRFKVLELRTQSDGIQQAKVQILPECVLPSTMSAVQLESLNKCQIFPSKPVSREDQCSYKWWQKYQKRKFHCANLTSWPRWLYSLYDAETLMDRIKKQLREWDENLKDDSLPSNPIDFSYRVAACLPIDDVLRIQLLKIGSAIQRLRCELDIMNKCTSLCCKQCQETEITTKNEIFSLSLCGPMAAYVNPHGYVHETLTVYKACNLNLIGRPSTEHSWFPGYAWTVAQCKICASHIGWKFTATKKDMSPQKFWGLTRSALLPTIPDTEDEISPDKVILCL

[7] = Inhibition of LPS-stimulated IL-6 release in human PBMC cells; assay type: functional, cell-based
[8] = Cmax in male C57BL/6 mouse at 2 mg/kg, iv measured up to 24 hrs by LC-MS/MS analysis; assay type: ADME, organism-based; conditions: in vivo
[9] = Oral bioavailability in Sprague-Dawley rat at 10 mg/kg measured up to 24 hrs by LC-MS/MS analysis; assay type: ADME, organism-based; conditions: in vivo
[10] = Metabolic stability in mouse liver microsome assessed as half life at 1 uM measured up to 60 mins in presence of NADPH by LC-MS/MS analysis; assay type: ADME; conditions: liver microsomes
[11] = Half life in male C57BL/6 mouse at 10 mg/kg, po measured up to 24 hrs by LC-MS/MS analysis; assay type: ADME, organism-based; conditions: in vivo
[12] = Half life in male C57BL/6 mouse at 2 mg/kg, iv measured up to 24 hrs by LC-MS/MS analysis; assay type: ADME, organism-based; conditions: in vivo
[13] = Cmax in Sprague-Dawley rat at 2 mg/kg, iv measured up to 24 hrs by LC-MS/MS analysis; assay type: ADME, organism-based; conditions: in vivo
[14] = Half life in Sprague-Dawley rat at 10 mg/kg, po measured up to 24 hrs by LC-MS/MS analysis; assay type: ADME, organism-based; conditions: in vivo
[15] = Cmax in male C57BL/6 mouse at 10 mg/kg, po measured up to 24 hrs by LC-MS/MS analysis; assay type: ADME, organism-based; conditions: in vivo
[16] = Clearance in male C57BL/6 mouse at 2 mg/kg, iv measured up to 24 hrs by LC-MS/MS analysis; assay type: ADME, organism-based; conditions: in vivo
[17] = Volume of distribution at steady state in Sprague-Dawley rat at 2 mg/kg, iv measured up to 24 hrs by LC-MS/MS analysis; assay type: ADME, organism-based; conditions: in vivo, read-out: Vdss
[18] = Metabolic stability in cynomolgus monkey liver microsome assessed as half life at 1 uM measured up to 60 mins in presence of NADPH by LC-MS/MS analysis; assay type: ADME, Macaca fascicularis; conditions: liver microsomes
[19] = Oral bioavailability in male C57BL/6 mouse at 10 mg/kg measured up to 24 hrs by LC-MS/MS analysis; assay type: ADME, organism-based; conditions: in vivo
[20] = Metabolic stability in human liver microsome assessed as half life at 1 uM measured up to 60 mins in presence of NADPH by LC-MS/MS analysis; assay type: ADME; conditions: liver microsomes
[21] = target: T2, Protein cereblon/Interleukin-1 receptor-associated kinase 4; test: PROTAC activity at CRBN/IRAK4 in human THP-1 cells assessed as induction of IRAK4 degradation incubated for 24 hrs by HiBiT lytic reagent based analysis relative to control; assay type: cell-based
Target sequence in this assay (Q96SW2 whole entry, looked up, one chain of several): as above

hERG (KCNH2) = hERG (KCNH2) (Homo sapiens, UniProt Q12809); test: Inhibition of hERG expressed in HEK293 cells at 1 uM by manual patch clamp assay relative to control; assay type: toxicity, cell-based; conditions: HEK293 cells expressing hERG
[22] = Tmax in male C57BL/6 mouse at 10 mg/kg, po measured up to 24 hrs by LC-MS/MS analysis; assay type: ADME, organism-based; conditions: in vivo
[23] = AUClast in male C57BL/6 mouse at 2 mg/kg, iv measured up to 24 hrs by LC-MS/MS analysis; assay type: ADME, organism-based; conditions: in vivo
[24] = Tmax in Sprague-Dawley rat at 10 mg/kg, po measured up to 24 hrs by LC-MS/MS analysis; assay type: ADME, organism-based; conditions: in vivo
[25] = AUClast in male C57BL/6 mouse at 10 mg/kg, po measured up to 24 hrs by LC-MS/MS analysis; assay type: ADME, organism-based; conditions: in vivo
[26] = Volume of distribution at steady state in male C57BL/6 mouse at 2 mg/kg, iv measured up to 24 hrs by LC-MS/MS analysis; assay type: ADME, organism-based; conditions: in vivo, read-out: Vdss
[27] = Metabolic stability in dog liver microsome assessed as half life at 1 uM measured up to 60 mins in presence of NADPH by LC-MS/MS analysis; assay type: ADME, Canis lupus familiaris; conditions: liver microsomes
[28] = target: T2, Protein cereblon/Interleukin-1 receptor-associated kinase 4; test: PROTAC activity at CRBN/IRAK4 in human THP-1 cells assessed as induction of IRAK4 degradation incubated for 24 hrs by HiBiT lytic reagent based analysis; assay type: cell-based
Target sequence in this assay (Q96SW2 whole entry, one chain of several): as the sequence (Q96SW2 whole entry, looked up, one chain of several) above

[29] = Clearance in Sprague-Dawley rat at 2 mg/kg, iv measured up to 24 hrs by LC-MS/MS analysis; assay type: ADME, organism-based; conditions: in vivo
[30] = Metabolic stability in rat liver microsome assessed as half life at 1 uM measured up to 60 mins in presence of NADPH by LC-MS/MS analysis; assay type: ADME; conditions: liver microsomes
[31] = Cmax in Sprague-Dawley rat at 10 mg/kg, po measured up to 24 hrs by LC-MS/MS analysis; assay type: ADME, organism-based; conditions: in vivo
[32] = Half life in Sprague-Dawley rat at 2 mg/kg, iv measured up to 24 hrs by LC-MS/MS analysis; assay type: ADME, organism-based; conditions: in vivo
[33] = AUClast in Sprague-Dawley rat at 10 mg/kg, po measured up to 24 hrs by LC-MS/MS analysis; assay type: ADME, organism-based; conditions: in vivo
[34] = AUClast in Sprague-Dawley rat at 2 mg/kg, iv measured up to 24 hrs by LC-MS/MS analysis; assay type: ADME, organism-based; conditions: in vivo

hERG (KCNH2), sequence (Q12809 whole entry): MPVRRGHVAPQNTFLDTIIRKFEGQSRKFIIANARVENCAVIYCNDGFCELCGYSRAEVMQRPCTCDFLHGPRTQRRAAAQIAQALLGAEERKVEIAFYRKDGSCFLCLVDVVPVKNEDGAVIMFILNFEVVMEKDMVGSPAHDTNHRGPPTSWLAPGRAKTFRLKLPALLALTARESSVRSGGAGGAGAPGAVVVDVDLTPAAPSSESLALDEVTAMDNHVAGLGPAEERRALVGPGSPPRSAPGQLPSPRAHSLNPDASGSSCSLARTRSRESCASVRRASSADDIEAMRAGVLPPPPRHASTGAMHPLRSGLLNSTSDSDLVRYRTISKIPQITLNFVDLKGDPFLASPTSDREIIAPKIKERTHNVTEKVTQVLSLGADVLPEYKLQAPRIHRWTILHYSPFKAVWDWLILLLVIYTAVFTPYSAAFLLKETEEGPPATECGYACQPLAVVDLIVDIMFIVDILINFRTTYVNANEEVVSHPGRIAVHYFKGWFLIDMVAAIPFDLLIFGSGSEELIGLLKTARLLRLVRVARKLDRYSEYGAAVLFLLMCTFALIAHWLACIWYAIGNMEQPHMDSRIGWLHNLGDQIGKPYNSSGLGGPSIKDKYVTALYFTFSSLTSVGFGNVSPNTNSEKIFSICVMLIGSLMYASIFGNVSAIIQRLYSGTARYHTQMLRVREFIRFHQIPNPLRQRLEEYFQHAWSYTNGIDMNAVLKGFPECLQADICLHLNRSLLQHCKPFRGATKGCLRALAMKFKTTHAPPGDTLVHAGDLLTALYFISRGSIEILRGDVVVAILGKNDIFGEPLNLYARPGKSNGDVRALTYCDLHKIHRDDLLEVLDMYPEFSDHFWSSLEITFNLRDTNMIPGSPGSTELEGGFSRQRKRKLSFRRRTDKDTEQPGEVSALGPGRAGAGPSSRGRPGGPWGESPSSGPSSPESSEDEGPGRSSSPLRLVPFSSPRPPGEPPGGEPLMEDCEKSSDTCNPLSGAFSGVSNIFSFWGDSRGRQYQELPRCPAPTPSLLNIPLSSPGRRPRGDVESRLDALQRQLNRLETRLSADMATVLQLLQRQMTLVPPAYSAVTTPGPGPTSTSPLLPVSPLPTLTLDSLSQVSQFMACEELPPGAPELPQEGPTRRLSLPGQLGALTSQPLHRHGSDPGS

Row | SMILES | Cmax [8] | F [9] | half-life at 1 µM [10] | half-life [11] | half-life [12] | Cmax [13] | half-life [14] | Cmax [15] | clearance [16] | Vd [17] | bioavailability [19] | half-life at 1 µM [20] | Emax [21] | inhibition at 1 µM (hERG (KCNH2)) | Tmax [22] | AUC(0-t) at 24 h [23] | Tmax [24] | AUC(0-t) at 24 h [25] | Vd [26] | half-life at 1 µM [27] | other results
1 | CN1CCC2(CC1)Cc1cc(NC(=O)c3cnn4cccnc34)c(N3CCC(CO)CC3)cc1O2 |  |  |  |  |  |  |  |  |  |  |  |  |  |  |  |  |  |  |  |  | IC50 [1]: 0.91 nM
2 | Cn1c(=O)n(C2CCC(=O)NC2=O)c2cccc(C#CCOC3CCN(C[C@H]4CC[C@H](n5cc(NC(=O)c6cnn7ccc(N8C[C@H]9C[C@@H]8CO9)nc67)c(C(F)F)n5)CC4)CC3)c21 (stereo partly specified) [KT-474] |  |  |  |  |  |  |  |  |  |  |  |  |  |  |  |  |  |  |  |  | Activity (Mus musculus [2]): inactive; Activity (Mus musculus [3]): inactive; Activity (Mus musculus [4]): inactive; Activity (Mus musculus [5]): inactive; Emax [6]: 82%; IC50 [7]: 29.1 nM
3 | Cn1c(=O)n(C2CCC(=O)NC2=O)c2cccc(C#CCO[C@H]3CC[C@H](CN4CCC5(CC4)Cc4cc(NC(=O)c6cnn7cccnc67)c(N6CCC(CO)CC6)cc4O5)CC3)c21 (stereo partly specified) | 2000 ng/mL | 11% | > 3.07 h | 3.7 h | 2.69 h | 1030 ng/mL | 3.58 h | 1540 ng/mL | 4.67 mL/min/kg | 3.26 L/kg | 42% | > 3.07 h | 90% | 28% | 2 h | 7160 ng·h/mL | 6 h | 14800 ng·h/mL | 0.94 L/kg | > 3.07 h | half-life at 1 µM [18]: 2.33 h; DC50 [28]: 2.65 nM; clearance [29]: 15.1 mL/min/kg; half-life at 1 µM [30]: > 3.07 h; Cmax [31]: 261 ng/mL; half-life [32]: 3.94 h; AUClast [33]: 3524 ng·h/mL; AUClast [34]: 2193 ng·h/mL
4 | Cn1c(=O)n(C2CCC(=O)NC2=O)c2cccc(C#CCO[C@H]3CC[C@H](CN4CCC5(CC4)Cc4cc(NC(=O)c6cnn7cc(F)cnc67)c(N6CCC(CO)CC6)cc4O5)CC3)c21 (stereo partly specified) | 1380 ng/mL | 21% | > 3.07 h | 4.27 h | 4.07 h | 243 ng/mL | 2.94 h | 2280 ng/mL | 2.83 mL/min/kg | 3.12 L/kg | 47% | > 3.07 h | 87% | 36% | 4 h | 11700 ng·h/mL | 6 h | 27000 ng·h/mL | 0.96 L/kg | > 3.07 h | DC50 [28]: 2.24 nM; clearance [29]: 12.4 mL/min/kg; Cmax [31]: 628 ng/mL; half-life [32]: 3.14 h; AUClast [33]: 8344 ng·h/mL; AUClast [34]: 424 ng·h/mL
